“Also recorded” adds a separate entry of the source. Read-outs that look alike come from different tables or passages of the source. *1 amine or outer side, *2 acyl side, *3 side chain or, on linkers, in order; H or OH if unused. Where a SMILES comes first, the peptide text is derived from it. [ ]: non-standard residue; d: D form. X1 = O=C([C@@H]1C[C@H](n2cc([C]34[CH]5[CH]6[CH]7[CH]3[Fe]6754389%10[CH]4[CH]3[CH]8[CH]9[CH]4%10)nn2)CN1[*:1])[*:2]; Cit = NC(=O)NCCC[C@H](N)C(=O)O
What was measured:
HIV-1 strain BaL [1] = conditions: P4-CCR5 cells; Gopi et al., 2008; read-out: IC50, inhibition of infection by HIV-1 BaL; cited from earlier work
[2] = In vitro cytotoxicity, MTT assay; assay type: cell-based; conditions: human; P4-CCR5 cells, 2 hours, MTT
Description: (§1) P4-CCR5 cells were seeded at a density of 4×10^4 cells/well in a 96 well plate approximately 18 hours prior to experiment. […] The cells were subsequently washed and assessed for viability using a 3-(4,5-dimethylthiazol-2-yl)-2,5-diphenyltetrazolium bromide (MTT) assay of viability (previously described in Krebs et al. (1999). Concentrations were tested in triplicate in two independent assays.

P4-CCR5 cells [3] = experiment: In vitro cytotoxicity, MTT assay; assay type: cell-based; conditions: concentrations as high as 0.1 mg/ml
Description: as §1

sCD4 = target: T1, sCD4 (Homo sapiens, UniProt P01730); experiment: SPR control: direct binding of peptide to sCD4 surface; conditions: SPR control experiment
T1 construct: soluble four domain CD4 (sCD4); made in house; host or cells: CHO cells

mAb 17b = experiment: SPR control: direct binding of peptide to mAb 17b surface; conditions: SPR control experiment
Pseudotyped HIV-1BaL = assay type: cell-based; conditions: Table 12; HOS.CD4.CCR5 cells, 48 hours; NA = not active; read-out: IC50 (antiviral)
[4] = test system: viruses pseudotyped with the VSV-G envelope; assay type: cell-based
HIV-1 YU2 gp120 [5] = target: T2, HIV-1 YU2 gp120 (Human immunodeficiency virus type 1 group M subtype B, UniProt P35961); assay type: binding; conditions: for dissociation rate constant (koff): Table 11, dissociation rate
T2 construct: made in house; host or cells: Drosophila S2 cells
Description: Surface plasmon resonance (SPR) interaction analyses were performed on a Biacore® 3000 optical biosensor (GE). All experiments were carried out at 25° C. using standard PBS, pH 7.4, with 0.005% Surfactant P20.
Regeneration of the surface was achieved by a one 5-second pulse of 10 mM glycine, pH 1.5.
SPR data analyses were performed using BIAEvaluation 4.0 software (GE). […] Experimental data were fitted to a simple 1:1 binding model with a parameter included for mass transport. […] The inhibition curve was converted into a calibration curve by the use of a fitting function. The fitting was done using the 4-parameter equation in BIAevaluation software: […]

[6] = target: T3, HIV-1YU-2 gp120 binding to sCD4 (Human immunodeficiency virus type 1 group M subtype B, UniProt P35961); conditions: Table 12; 100 nM gp120; NA = not active
T3 construct: made in house; host or cells: Drosophila S2 cells (gp120); CHO cells (sCD4)
Description: (§2) Where Rhigh is the response value at high inhibitor concentrations and Rlow is response at low inhibitor concentrations. Cone is the concentration of inhibitor, and A1 and A2 are fitting parameters. At IC50 the following is true:
(§3) Under this condition, A1=Conc and is therefore taken as the desired so parameter.

[7] = target: T4, HIV-1YU-2 gp120 binding to mAb 17b (Human immunodeficiency virus type 1 group M subtype B, UniProt P35961); conditions: Table 12; 100 nM gp120; NA = not active
T4 construct: made in house; host or cells: Drosophila S2 cells (gp120)
Description: as §2, §3

gp120 = target: T5, gp120 (Human immunodeficiency virus type 1 group M subtype B, UniProt P35961); assay type: binding, HIV-1; conditions: ITC, 25° C., PBS pH 7.4
T5 construct: made in house; host or cells: Drosophila S2 cells
Description: FIGS. 14A-14D are a series of graphs of calorimetric titration data of gp120 with various peptides. […] Data was obtained as 25° C. in PBS, pH 7.4. Experiments in FIGS. 14A and 14B were carried out using a VP-ITC, where 2 μM gp120 in the calorimetric cell (˜1.4 mL) was titrated with 10 μL aliquots of peptide at concentration of 30 μM.
Isothermal titration calorimetric experiments were performed using high-precision calorimetric systems of model VP-ITC or ITC20 from MicroCal Inc. The titrations were performed by stepwise addition of peptide to gp120 contained in the calorimetric cell at a constant temperature of 25° C. […] For the experiments carried out in the VP-ITC the concentration of gp120 was about 2 μM and the syringe contained the peptide at a concentration about 30 μM. For the experiment carried out using ITC20 gp120 was prepared at about 4 μM and the peptide at 50-100 μM. The solutions contained within the calorimetric cells and injector syringes were prepared in PBS, pH 7.4 and thoroughly degassed to avoid bubble formation in the calorimetric cell. The heat evolved upon each injection of the peptide solution was obtained from the integral of the calorimetric signal. The heat associated with binding of a ligand to the protein in the cell was obtained by subtracting the heat of dilution from the heat of reaction.

HIV-1 YU2 gp120 [8] = target: T2, HIV-1 YU2 gp120; experiment: biochemical; assay type: binding; conditions: Kd (affinity) for HIV-1 YU2 gp120 as measured by SPR
Description: All surface plasmon resonance experiments (SPR) were performed on a BIA3000 optical biosensor (Biocore, Inc., Uppsala, Sweden). […] For direct binding experiments, YU2 gp120 was immobilized on the surface (˜4000 RU); peptide analytes in PBS buffer were passed over the surface at a flow rate of 50 μL/min, with 5 minute association phase and 5 minute dissociation phase. […] The indicated analytes were passed over the surfaces at a flow rate of 50 μL/minute, with 2.5 minute association phase and 2.5 minute dissociation phase.
Data analysis was performed using BIAEvaluation® 4.0 software (Biacore Inc., NJ). The responses of a buffer injection and responses from the control surface to which the mAb 2B6R was immobilized, were subtracted to account for nonspecific binding. Experimental data were fitted to a simple 1:1 Langmuir binding model with a parameter included for mass transport. The average kinetic parameters (association [ka] and dissociation [kd] rates) generated from a minimum of four datasets were used to define equilibrium association (KA) and dissociation constants (KD).

HIV-1 strain BaL [9] = experiment: Combination of HNG-156 and cyanovirin-N, HIV-1 BaL infection of P4-CCR5 cells; assay type: cell-based
P4-CCR5 cells [10] = conditions: at concentrations corresponding to IC50 values; Gopi et al., 2008; cited from earlier work
HIV-1 strain BaL [11] = experiment: Inhibition of HIV-1 infection, whole virus assay in P4-CCR5 cells; assay type: cell-based; conditions: result of one trial

In the case of “12-mer peptide RINNIPWSEAMM (SEQ ID NO. 16) from phage-display library [Conjugate 12p1, reference compound]”, the IC50 (HIV-1 strain BaL [1]) is listed as 48 µM.

For `CC[C@H](C)[C@H](NC(=O)[C@@H](N)CCCNC(=N)N)C(=O)N[C@@H](CC(N)=O)C(=O)N[C@@H](CC(N)=O)C(=O)N[C@H](C(=O)N1C[C@@H](n2cc([C]34[CH]5[CH]6[CH]7[CH]3[Fe]6754389%10[CH]4[CH]3[CH]8[CH]9[CH]4%10)nn2)C[C@H]1C(=O)N[C@@H](Cc1c[nH]c2ccccc12)C(=O)N[C@@H](CO)C(=O)N[C@@H](CCC(=O)O)C(=O)N[C@@H](C)C(=O)N[C@@H](CCSC)C(=O)N[C@@H](CCSC)C(N)=O)[C@@H](C)CC` (stereo partly shown) [HNG-156], the CC50 at 2 h [2] was > 59 µM and the “effect on P4-CCR5 cell viability” value (P4-CCR5 cells [3]) was “no effect”.

With `CSCC[C@H](NC(=O)[C@H](CCSC)NC(=O)[C@H](C)NC(=O)[C@H](CCC(=O)O)NC(=O)[C@H](CO)NC(=O)[C@H](Cc1c[nH]c2ccccc12)NC(=O)[C@@H]1C[C@H](n2cc([C]34[CH]5[CH]6[CH]7[CH]3[Fe]6754389%10[CH]4[CH]3[CH]8[CH]9[CH]4%10)nn2)CN1)C(N)=O` (stereo partly shown) [UM10] (H-[X1]WSEAMM-NH2; N-terminus and C-terminus assumed) the “direct binding to sCD4” value (sCD4) was “neither UM10 nor UM12 exhibited direct binding”, the “direct binding to 17b” value (mAb 17b) was “neither UM10 nor UM12 exhibited direct binding” and the IC50 (Pseudotyped HIV-1BaL) was 35 ± 15 µM. The “inhibition of negative control viruses pseudotyped with the VSV envelope” value [4] was “Neither of these conjugates inhibited”, the “dissociation rate constant (koff)” value (HIV-1 YU2 gp120 [5]) was 8.90E−04 ± 1.2 1/S and the “affinity relative to 12 mer peptide of HNG-156” value (HIV-1 YU2 gp120 [5]; lower affinity) was 100 fold. For the same molecule, the “sCD4 (IC50)” value [6] was “unable to inhibit; also recorded: no IC50 value could be calculated” and the “mAb 17b (IC50)” value [7] was “unable to inhibit”.

For `CC[C@H](C)[C@H](NC(=O)[C@@H](N)CCCNC(=N)N)C(=O)N[C@@H](CC(N)=O)C(=O)N[C@@H](CC(N)=O)C(=O)N[C@H](C(=O)N1C[C@@H](n2cc([C]34[CH]5[CH]6[CH]7[CH]3[Fe]6754389%10[CH]4[CH]3[CH]8[CH]9[CH]4%10)nn2)C[C@H]1C(=O)N[C@@H](Cc1c[nH]c2ccccc12)C(N)=O)[C@@H](C)CC` (stereo partly shown) [UM12] (H-RINNI[X1]W-NH2; N-terminus and C-terminus assumed), the “direct binding to sCD4” value (sCD4) was “neither UM10 nor UM12 exhibited direct binding”, the “direct binding to 17b” value (mAb 17b) was “neither UM10 nor UM12 exhibited direct binding” and the IC50 (Pseudotyped HIV-1BaL) was 6.8 ± 0.3 µM. For the same molecule, the “inhibition of negative control viruses pseudotyped with the VSV envelope” value [4] was “Neither of these conjugates inhibited”, the “dissociation rate constant (koff)” value (HIV-1 YU2 gp120 [5]) was 1.8E−03 ± 1.3 1/S and the ΔH (gp120) was -19.7 kcal/mol. The “−TΔS” value (gp120) was “+9.9 kcal/mol”.

In the case of `CC[C@H](C)[C@H](NC(=O)[C@@H](N)CCC(=O)O)C(=O)N[C@@H](CC(N)=O)C(=O)N[C@@H](CC(N)=O)C(=O)N[C@H](C(=O)N1C[C@@H](n2cc([C]34[CH]5[CH]6[CH]7[CH]3[Fe]6754389%10[CH]4[CH]3[CH]8[CH]9[CH]4%10)nn2)C[C@H]1C(=O)N[C@@H](Cc1c[nH]c2ccccc12)C(=O)N[C@@H](CO)C(N)=O)[C@@H](C)CC` (stereo partly shown) [UM13] (H-EINNI[X1]WS-NH2; N-terminus and C-terminus assumed), the IC50 (Pseudotyped HIV-1BaL) is reported as 1.2 ± 0.3 µM and the “dissociation rate constant (koff)” value (HIV-1 YU2 gp120 [5]) is reported as 3.1E−03 ± 2 1/S.

With `CC[C@H](C)[C@H](NC(=O)[C@H](CC(N)=O)NC(=O)[C@@H](N)CC(N)=O)C(=O)N1C[C@@H](n2cc([C]34[CH]5[CH]6[CH]7[CH]3[Fe]6754389%10[CH]4[CH]3[CH]8[CH]9[CH]4%10)nn2)C[C@H]1C(=O)N[C@@H](Cc1c[nH]c2ccccc12)C(N)=O` (stereo partly shown) [UM17] (H-NNI[X1]W-NH2) the IC50 (Pseudotyped HIV-1BaL) was 33 ± 11 µM, the “dissociation rate constant (koff)” value (HIV-1 YU2 gp120 [5]) was 6.0E−03 ± 1.25 1/S and the ΔH (gp120) was -13.2 kcal/mol. The “−TΔS” value (gp120) was “+3.3 kcal/mol”.

With `CC[C@H](C)[C@H](NC(=O)[C@H](CC(N)=O)NC(=O)[C@H](CC(N)=O)NC(=O)[C@@H](N)CCCNC(N)=O)C(=O)N1C[C@@H](n2cc([C]34[CH]5[CH]6[CH]7[CH]3[Fe]6754389%10[CH]4[CH]3[CH]8[CH]9[CH]4%10)nn2)C[C@H]1C(=O)N[C@@H](Cc1c[nH]c2ccccc12)C(=O)N[C@@H](CO)C(N)=O` (stereo partly shown) [UM24] (H-[Cit]NNI[X1]WS-NH2; N-terminus and C-terminus assumed) the Kd (HIV-1 YU2 gp120 [8]) was ~0.021 µM, the “dissociation rate constant (koff)” value (HIV-1 YU2 gp120 [5]) was 2.9E−03 ± 1.2 1/S and the ΔH (gp120) was -16.7 kcal/mol. The “−TΔS” value (gp120) was “+6.3 kcal/mol”.

For RINNIPWSEAMM [HNG-113], the “synergy with CV-N” value (HIV-1 strain BaL [9]) is given as “does not synergize”, the IC50 (HIV-1 strain BaL [1]) is given as 0.156 µM and the “impact on cell viability” value (P4-CCR5 cells [10]) is given as “no or minimal impact”.

In the case of RINNIPWSEAMM [HNG-124], the IC50 (HIV-1 strain BaL [1]) is listed as 0.418 µM and the “impact on cell viability” value (P4-CCR5 cells [10]) is listed as “no or minimal impact”.

For RINNIPWSEAMM [HNG-137], the IC50 (HIV-1 strain BaL [1]) is given as 0.61 µM and the “impact on cell viability” value (P4-CCR5 cells [10]) is given as “no or minimal impact”.

In the case of dextran sulfate, the IC50 (HIV-1 strain BaL [11]) is reported as 9.8 µM, the “IC50, inhibition of infection by HIV-1 BaL” value (HIV-1 strain BaL [11]) is reported as 4.9 µg/mL and the “Viral infectivity inhibition IC50” value (HIV-1 strain BaL [9]; agent alone) is reported as 0.900 microgram/milliliter.

B1: Cyanovirin-N: 11 kD protein originally isolated from the cyanobacteria Nostoc ellipsosporum; binds gp120 (protein, listed as Nostoc ellipsosporum)
chain: LGKFSQTCYNSAIQGSVLTSTCERTNGGYNTSSIDLNSVIENVDGSLKWQPSNFIETCRNTQLAGSSELAAECKTRAQQFVSTKINLDDHIANIDGTLKYE
modifications: DISULFID (8)..(22); DISULFID (58)..(73)
In the case of B1, the “Viral infectivity inhibition IC50” value (HIV-1 strain BaL [9]; agent alone) is reported as 0.026 microgram/milliliter and the “EC50 Dm” value (HIV-1 strain BaL [9]; agent alone, dose at which 50% neutralization occurs) is reported as 0.045 µg/mL.
